Results from BindingDB's records for doi:10.1021/acs.jmedchem.6b01363 (Genentech, 2017).

Molecular target: Transcription factor p65 (Human, UniProt Q04206)
Assay: Inhibition of TNF-alpha-stimulated RELA translocation from cytoplasm to nucleus in human HeLa cells preincubated for 4.5 hrs followed by TNF-alpha stimulation measured after 30 mins

Transcription factor p65, sequence (Q04206 whole entry): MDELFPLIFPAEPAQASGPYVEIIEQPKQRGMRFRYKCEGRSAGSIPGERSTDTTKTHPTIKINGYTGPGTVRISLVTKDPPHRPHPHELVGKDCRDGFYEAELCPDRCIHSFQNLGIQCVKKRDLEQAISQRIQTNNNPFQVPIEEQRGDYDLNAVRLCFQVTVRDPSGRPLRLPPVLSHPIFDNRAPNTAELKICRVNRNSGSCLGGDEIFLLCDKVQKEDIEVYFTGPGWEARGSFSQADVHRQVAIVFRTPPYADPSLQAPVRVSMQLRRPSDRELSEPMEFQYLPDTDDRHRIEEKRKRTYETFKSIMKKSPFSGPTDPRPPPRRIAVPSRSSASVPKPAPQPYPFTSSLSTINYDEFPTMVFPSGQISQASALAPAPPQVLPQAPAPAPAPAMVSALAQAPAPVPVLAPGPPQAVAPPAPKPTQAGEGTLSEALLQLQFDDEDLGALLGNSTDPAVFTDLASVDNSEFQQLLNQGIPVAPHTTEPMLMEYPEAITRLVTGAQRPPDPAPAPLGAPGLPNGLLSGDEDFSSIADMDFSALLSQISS

IC50 | SMILES
> 20 µM | Cc1cc([C@](C)(O)C#Cc2cc3c(cc2F)OCCn2cc(C(N)=O)nc2-3)no1 [US9034866, 6]
> 20 µM | CNC(=O)c1c(C(N)=O)nc2n1CCOc1ccc(C#C[C@@](C)(O)c3cc(C)on3)cc1-2 [US9034866, 96]
> 20 µM | Cc1cc([C@](C)(O)C#Cc2cc3c(cc2F)C2CC(C2)n2cc(C(N)=O)nc2-3)no1 [US9034866, 129]
